Assays:
[1] = biological target: High affinity nerve growth factor receptor (Homo sapiens) (UniProt P04629); experiment: Inhibition of TRKA (unknown origin) at 10 uM after 120 mins P33 radiolabeled kinase activity assay
[2] = biological target: Fibroblast growth factor receptor 3 (Homo sapiens) (UniProt P22607); experiment: Inhibition of FGFR3 (unknown origin) at 10 uM after 120 mins P33 radiolabeled kinase activity assay
[3] = biological target: Dual specificity protein kinase CLK1 (Homo sapiens) (UniProt P49759); experiment: Inhibition of CLK1 (unknown origin) at 10 uM after 120 mins P33 radiolabeled kinase activity assay
[4] = biological target: T1, Mitogen-activated protein kinase 15 (Homo sapiens) (UniProt Q8TD08); experiment: Inhibition of ERK7 (unknown origin) at 10 uM after 120 mins P33 radiolabeled kinase activity assay
T1 sequence (whole entry): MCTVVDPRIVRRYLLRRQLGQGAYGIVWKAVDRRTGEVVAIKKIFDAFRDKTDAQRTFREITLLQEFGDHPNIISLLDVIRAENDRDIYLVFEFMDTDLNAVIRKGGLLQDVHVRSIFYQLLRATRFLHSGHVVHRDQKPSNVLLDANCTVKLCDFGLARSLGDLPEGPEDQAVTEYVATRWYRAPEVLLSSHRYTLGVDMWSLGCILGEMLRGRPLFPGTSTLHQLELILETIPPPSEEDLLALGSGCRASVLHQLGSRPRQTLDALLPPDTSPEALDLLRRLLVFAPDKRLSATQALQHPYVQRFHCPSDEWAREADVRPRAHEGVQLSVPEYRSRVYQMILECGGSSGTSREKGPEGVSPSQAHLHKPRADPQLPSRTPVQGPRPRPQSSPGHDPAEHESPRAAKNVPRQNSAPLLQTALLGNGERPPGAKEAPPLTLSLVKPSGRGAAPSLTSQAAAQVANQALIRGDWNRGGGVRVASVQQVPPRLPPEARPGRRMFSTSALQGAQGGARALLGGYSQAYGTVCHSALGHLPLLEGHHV

[5] = biological target: Mitogen-activated protein kinase 14 (Homo sapiens) (UniProt Q16539); experiment: Inhibition of P38alpha (unknown origin) at 10 uM after 120 mins P33 radiolabeled kinase activity assay
[6] = biological target: T2, Serine/threonine-protein kinase VRK1 (Homo sapiens) (UniProt Q99986); experiment: Inhibition of VRK1 (unknown origin) at 10 uM after 120 mins P33 radiolabeled kinase activity assay
T2 sequence (whole entry): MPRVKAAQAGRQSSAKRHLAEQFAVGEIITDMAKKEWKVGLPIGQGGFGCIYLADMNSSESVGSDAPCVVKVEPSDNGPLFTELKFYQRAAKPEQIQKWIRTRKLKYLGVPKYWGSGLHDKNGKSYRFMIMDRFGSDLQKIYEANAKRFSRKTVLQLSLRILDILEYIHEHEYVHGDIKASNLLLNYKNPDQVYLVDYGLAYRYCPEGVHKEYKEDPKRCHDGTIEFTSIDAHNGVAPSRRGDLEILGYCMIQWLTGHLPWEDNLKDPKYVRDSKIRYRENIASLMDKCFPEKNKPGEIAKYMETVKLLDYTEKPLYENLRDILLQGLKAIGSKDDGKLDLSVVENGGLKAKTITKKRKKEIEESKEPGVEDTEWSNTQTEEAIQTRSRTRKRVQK

[7] = biological target: MAP kinase-interacting serine/threonine-protein kinase 1 (Homo sapiens) (UniProt Q9BUB5); experiment: Inhibition of MNK1 (unknown origin) at 10 uM after 120 mins P33 radiolabeled kinase activity assay
[8] = biological target: Mitogen-activated protein kinase kinase kinase kinase 2 (Homo sapiens) (UniProt Q12851); experiment: Inhibition of GCK (unknown origin) at 10 uM after 120 mins P33 radiolabeled kinase activity assay
[9] = biological target: T3, TGF-beta receptor type-1 (Homo sapiens) (UniProt P36897); experiment: Inhibition of ALK5 (unknown origin) at 10 uM after 120 mins P33 radiolabeled kinase activity assay
T3 sequence (whole entry): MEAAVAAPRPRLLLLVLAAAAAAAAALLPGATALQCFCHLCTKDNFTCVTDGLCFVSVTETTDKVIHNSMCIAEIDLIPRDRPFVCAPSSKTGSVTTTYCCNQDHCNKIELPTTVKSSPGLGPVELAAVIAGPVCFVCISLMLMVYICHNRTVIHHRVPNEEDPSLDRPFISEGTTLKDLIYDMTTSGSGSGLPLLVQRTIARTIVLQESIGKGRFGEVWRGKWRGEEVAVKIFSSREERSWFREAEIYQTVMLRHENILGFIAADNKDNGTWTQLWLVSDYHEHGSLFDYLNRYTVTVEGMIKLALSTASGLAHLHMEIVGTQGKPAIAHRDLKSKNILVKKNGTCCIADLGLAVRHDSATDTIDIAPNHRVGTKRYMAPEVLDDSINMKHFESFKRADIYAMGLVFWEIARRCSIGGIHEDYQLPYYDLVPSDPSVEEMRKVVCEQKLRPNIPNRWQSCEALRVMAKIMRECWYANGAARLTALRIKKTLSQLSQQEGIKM

[10] = biological target: T4, Muscle, skeletal receptor tyrosine-protein kinase (Homo sapiens) (UniProt O15146); experiment: Inhibition of MUSK (unknown origin) at 10 uM after 120 mins P33 radiolabeled kinase activity assay
T4 sequence (whole entry): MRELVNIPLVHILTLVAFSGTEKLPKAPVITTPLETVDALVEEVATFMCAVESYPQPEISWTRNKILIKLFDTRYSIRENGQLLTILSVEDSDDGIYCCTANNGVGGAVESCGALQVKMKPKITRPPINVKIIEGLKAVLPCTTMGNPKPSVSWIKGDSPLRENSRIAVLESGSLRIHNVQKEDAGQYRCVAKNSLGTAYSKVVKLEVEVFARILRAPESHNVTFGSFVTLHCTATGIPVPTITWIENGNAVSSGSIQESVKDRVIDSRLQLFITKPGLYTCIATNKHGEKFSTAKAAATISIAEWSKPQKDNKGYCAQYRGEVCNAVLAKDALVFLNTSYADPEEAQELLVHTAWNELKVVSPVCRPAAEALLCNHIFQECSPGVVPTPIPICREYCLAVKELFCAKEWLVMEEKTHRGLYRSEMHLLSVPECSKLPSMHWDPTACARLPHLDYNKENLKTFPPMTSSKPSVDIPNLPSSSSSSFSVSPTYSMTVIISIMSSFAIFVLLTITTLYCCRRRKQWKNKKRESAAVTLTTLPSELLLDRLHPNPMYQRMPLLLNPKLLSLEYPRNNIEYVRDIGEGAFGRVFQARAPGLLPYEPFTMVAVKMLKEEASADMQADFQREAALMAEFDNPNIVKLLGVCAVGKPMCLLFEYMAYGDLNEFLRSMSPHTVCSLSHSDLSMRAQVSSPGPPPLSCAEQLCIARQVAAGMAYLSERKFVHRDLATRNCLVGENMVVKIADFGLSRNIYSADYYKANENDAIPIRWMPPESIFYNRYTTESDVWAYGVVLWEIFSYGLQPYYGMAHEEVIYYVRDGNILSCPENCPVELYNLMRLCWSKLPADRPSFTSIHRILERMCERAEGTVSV

Chain of Fibroblast growth factor receptor 3 (Homo sapiens) (P22607 23-806 limits assumed): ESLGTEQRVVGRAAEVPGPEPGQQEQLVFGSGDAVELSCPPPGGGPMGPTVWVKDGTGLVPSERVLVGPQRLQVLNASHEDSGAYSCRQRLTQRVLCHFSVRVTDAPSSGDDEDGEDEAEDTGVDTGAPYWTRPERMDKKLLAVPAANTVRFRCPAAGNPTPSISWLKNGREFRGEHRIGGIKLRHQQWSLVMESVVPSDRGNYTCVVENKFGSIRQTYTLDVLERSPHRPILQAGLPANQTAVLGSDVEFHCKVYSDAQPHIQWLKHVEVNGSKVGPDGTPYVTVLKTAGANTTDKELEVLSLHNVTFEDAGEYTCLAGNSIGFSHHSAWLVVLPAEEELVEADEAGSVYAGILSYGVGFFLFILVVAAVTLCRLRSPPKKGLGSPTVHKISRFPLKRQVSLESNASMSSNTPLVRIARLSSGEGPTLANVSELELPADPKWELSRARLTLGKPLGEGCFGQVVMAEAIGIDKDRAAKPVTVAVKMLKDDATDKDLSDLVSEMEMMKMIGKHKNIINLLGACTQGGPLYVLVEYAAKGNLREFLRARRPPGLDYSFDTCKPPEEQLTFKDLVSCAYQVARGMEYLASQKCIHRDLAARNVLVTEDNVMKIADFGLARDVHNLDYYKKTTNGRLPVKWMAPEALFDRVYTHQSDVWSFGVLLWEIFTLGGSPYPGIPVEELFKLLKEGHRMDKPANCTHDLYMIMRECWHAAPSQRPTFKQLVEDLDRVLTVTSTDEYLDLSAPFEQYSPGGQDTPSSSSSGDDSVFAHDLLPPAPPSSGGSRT
Chain of Mitogen-activated protein kinase kinase kinase kinase 2 (Homo sapiens) (Q12851 whole entry, looked up): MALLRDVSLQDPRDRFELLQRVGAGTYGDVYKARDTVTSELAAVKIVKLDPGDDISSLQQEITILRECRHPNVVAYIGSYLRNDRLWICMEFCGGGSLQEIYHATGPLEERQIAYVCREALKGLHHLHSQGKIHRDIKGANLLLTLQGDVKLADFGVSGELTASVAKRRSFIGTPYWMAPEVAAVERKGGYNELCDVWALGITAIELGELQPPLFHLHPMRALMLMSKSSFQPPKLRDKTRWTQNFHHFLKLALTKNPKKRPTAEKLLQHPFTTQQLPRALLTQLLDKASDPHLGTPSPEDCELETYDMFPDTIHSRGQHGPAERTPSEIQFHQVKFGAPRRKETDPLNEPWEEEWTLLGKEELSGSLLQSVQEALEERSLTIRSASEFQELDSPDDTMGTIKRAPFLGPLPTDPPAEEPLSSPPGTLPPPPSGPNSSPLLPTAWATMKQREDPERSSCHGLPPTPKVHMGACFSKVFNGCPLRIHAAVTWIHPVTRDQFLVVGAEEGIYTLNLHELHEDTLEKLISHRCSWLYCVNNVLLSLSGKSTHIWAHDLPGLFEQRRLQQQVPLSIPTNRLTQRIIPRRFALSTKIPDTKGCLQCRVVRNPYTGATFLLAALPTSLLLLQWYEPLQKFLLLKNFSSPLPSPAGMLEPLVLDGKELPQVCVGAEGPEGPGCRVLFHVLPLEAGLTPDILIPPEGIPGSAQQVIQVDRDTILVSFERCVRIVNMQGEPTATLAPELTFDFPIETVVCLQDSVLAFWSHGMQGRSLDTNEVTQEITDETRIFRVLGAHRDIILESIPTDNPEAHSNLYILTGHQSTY
Chain of Dual specificity protein kinase CLK1 (Homo sapiens) (P49759 whole entry, looked up): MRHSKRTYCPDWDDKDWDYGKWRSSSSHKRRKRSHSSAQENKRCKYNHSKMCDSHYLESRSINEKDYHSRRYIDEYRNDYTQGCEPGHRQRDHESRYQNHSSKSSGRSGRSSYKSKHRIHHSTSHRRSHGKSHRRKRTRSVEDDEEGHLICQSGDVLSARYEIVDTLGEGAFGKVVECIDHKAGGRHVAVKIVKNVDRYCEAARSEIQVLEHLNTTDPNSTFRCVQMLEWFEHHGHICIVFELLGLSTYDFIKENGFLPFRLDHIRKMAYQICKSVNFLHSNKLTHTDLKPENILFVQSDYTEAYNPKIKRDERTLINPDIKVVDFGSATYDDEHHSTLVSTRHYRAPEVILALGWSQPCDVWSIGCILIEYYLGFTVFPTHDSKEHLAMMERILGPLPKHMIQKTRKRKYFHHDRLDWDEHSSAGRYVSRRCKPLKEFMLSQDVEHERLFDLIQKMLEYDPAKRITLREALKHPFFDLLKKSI
Chain of MAP kinase-interacting serine/threonine-protein kinase 1 (Homo sapiens) (Q9BUB5 whole entry, looked up): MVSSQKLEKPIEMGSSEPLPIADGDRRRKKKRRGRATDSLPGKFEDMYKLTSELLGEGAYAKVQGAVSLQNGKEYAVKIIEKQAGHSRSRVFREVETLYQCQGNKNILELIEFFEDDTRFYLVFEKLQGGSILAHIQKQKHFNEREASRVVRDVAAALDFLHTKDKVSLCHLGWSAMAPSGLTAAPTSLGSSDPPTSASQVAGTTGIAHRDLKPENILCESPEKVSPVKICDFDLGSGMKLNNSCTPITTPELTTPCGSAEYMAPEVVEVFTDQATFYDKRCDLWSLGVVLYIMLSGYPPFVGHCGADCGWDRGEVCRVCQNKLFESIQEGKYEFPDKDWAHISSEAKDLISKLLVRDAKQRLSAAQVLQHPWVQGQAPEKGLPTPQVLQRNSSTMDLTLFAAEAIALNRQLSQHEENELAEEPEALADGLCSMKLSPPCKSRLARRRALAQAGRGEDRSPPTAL
Chain of Mitogen-activated protein kinase 14 (Homo sapiens) (Q16539 whole entry): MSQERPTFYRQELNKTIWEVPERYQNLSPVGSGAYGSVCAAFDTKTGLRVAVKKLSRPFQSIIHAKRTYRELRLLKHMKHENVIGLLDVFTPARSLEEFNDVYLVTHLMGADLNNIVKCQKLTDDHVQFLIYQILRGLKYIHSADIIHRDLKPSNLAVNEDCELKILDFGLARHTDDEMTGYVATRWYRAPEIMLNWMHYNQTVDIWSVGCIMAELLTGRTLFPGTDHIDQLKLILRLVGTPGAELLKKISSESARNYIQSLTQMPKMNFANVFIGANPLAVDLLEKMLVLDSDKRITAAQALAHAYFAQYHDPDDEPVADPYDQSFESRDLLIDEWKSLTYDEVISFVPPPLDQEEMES
Chain of High affinity nerve growth factor receptor (Homo sapiens) (P04629 33-796 limits assumed): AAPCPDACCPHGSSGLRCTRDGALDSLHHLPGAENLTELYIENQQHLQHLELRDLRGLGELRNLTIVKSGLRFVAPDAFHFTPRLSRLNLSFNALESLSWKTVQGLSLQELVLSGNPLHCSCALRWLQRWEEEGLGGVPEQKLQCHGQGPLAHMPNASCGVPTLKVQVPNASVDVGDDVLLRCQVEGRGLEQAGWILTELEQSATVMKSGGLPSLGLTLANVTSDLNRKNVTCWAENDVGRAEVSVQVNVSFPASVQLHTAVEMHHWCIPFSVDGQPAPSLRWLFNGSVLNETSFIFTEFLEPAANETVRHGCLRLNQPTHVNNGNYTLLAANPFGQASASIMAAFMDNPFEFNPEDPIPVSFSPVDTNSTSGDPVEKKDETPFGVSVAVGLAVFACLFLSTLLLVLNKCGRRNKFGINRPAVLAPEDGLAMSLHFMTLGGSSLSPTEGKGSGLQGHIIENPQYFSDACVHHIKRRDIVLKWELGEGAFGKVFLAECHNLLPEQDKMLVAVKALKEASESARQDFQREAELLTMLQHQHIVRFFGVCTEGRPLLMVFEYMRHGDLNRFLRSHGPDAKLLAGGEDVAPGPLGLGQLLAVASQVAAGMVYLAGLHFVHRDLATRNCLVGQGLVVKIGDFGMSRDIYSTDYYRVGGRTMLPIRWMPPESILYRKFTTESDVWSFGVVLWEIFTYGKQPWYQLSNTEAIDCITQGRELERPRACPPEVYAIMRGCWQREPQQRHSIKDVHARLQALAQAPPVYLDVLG

| Compound | inhibition [1] [%] | inhibition [2] [%] | inhibition [3] [%] | inhibition [4] [%] | inhibition [5] [%] | inhibition [6] [%] | inhibition [7] [%] | inhibition [8] [%] | inhibition [9] [%] | inhibition [10] [%] |
| --- | --- | --- | --- | --- | --- | --- | --- | --- | --- | --- |
| CS(=O)(=O)c1cccc(Nc2nccc(-c3sc(N4CCOCC4)nc3-c3cccc(NS(=O)(=O)c4c(F)cccc4F)c3)n2)c1 | 39.8 | 51.2 | 14.1 | 87 | 18.8 | 15.4 | 73 | -0.78 | 69.6 | 33.2 |
| COCCNC(=O)c1ccc2c(c1)nc(-c1cnc(-c3ccc(Cl)cc3)[nH]1)n2CCOC | 5.11 | 8.78 | 13.4 | 0.89 | 62.3 | 3.79 | 28.7 | -3.21 | -7.32 | -5.11 |
| CC(C)(C)c1cc(NC(=O)Nc2ccc(Oc3ccncc3)cc2)no1 | 97.2 | 72.3 | 50.7 | 99.8 | 98.9 | 14 | 99.6 | 57.4 | -8.74 | 16.4 |
